Drawing on patent publication US9745284B2, “2-pyridyloxy-4-ether orexin receptor antagonists” (MERCK SHARP & DOHME CORP., priority 2013, dated 2017), this text covers IC50 for 23 compounds.

SMILES strings stand for the structures. Bounds are passed on as bounds.

The target in assay [1] is human orexin-2 receptor (Homo sapiens (Human), UniProt O43614). Kind of assay: FLIPR Ca2+ flux assay, orexin-2 receptor. Type of assay: cell-based. The following applies: CHO cells expressing human orexin-2 receptor; agonist 70 pM Ala-6,12 orexin-A; read-out: hOX2R FLIPR IC50. How it is done: The utility of the compounds in accordance with the present invention as orexin receptor OX1R and/or OX2R antagonists may be readily determined without undue experimentation by methodology well known in the art, including the “FLIPR Ca^2+ Flux Assay” (Okumura et al., Biochem. Biophys. Res. Comm. 280:976-981, 2001). In a typical experiment the OX1 and OX2 receptor antagonistic activity of the compounds of the present invention was determined in accordance with the following experimental method. For intracellular calcium measurements, Chinese hamster ovary (CHO) cells expressing the rat orexin-1 receptor or the human orexin-2 receptor, are grown in Iscove's modified DMEM containing 2 mM L-glutamine, […], 1% hypoxanthine-thymidine supplement, 100 U/ml penicillin, 100 μg/ml streptomycin and 10% heat-inactivated fetal calf serum (FCS). The cells are seeded at 20,000 cells/well into Becton-Dickinson black 384-well clear bottom sterile plates coated with poly-D-lysine. All reagents were from GIBCO-Invitrogen Corp. The seeded plates are incubated overnight at 37° C. and 5% CO2. Ala-6,12 human orexin-A as the agonist is prepared as a 1 mM stock solution in 1% bovine serum albumin (BSA) and diluted in assay buffer (HBSS containing 20 mM HEPES, 0.1% BSA and 2.5 mM probenecid, pH7.4) for use in the assay at a final concentration of 70 pM. Test compounds are prepared as 10 mM stock solution in DMSO, then diluted in 384-well plates, first in DMSO, then assay buffer. On the day of the assay, cells are washed 3 times with 100 μl assay buffer and then incubated for 60 min (37° C., 5% CO2) in 60 μl assay buffer containing 1 μM Fluo-4AM ester, 0.02% pluronic acid, and 1% BSA. The dye loading solution is then aspirated and cells are washed 3 times with 100 μl assay buffer. 30 μl of that same buffer is left in each well. Within the Fluorescent Imaging Plate Reader (FLIPR, Molecular Devices), test compounds are added to the plate in a volume of 25 μl, incubated for 5 min and finally 25 μl of agonist is added. Fluorescence is measured for each well at 1 second intervals for 5 minutes and the height of each fluorescence peak is compared to the height of the fluorescence peak induced by 70 pM Ala-6,12 orexin-A with buffer in place of antagonist. For each antagonist, IC50 value (the concentration of compound needed to inhibit 50% of the agonist response) is determined. Alternatively, compound potency can be assessed by a radioligand binding assay (described in Bergman et. al. Bioorg. Med. Chem. Lett. 2008, 18, 1425-1430) in which the inhibition constant (Ki) is determined in membranes prepared from CHO cells expressing either the OX1 or OX2 receptor. The intrinsic orexin receptor antagonist activity of a compound which may be used in the present invention may be determined by these assays.
(A change in cytosolic calcium serves as a functional read-out for many receptors and channels.)

In assay [2] the target is hOX1R (Homo sapiens, UniProt O43613). The assay can be described thus: FLIPR Ca2+ flux assay, orexin-1 receptor. The following applies: CHO cells expressing orexin-1 receptor; agonist 70 pM Ala-6,12 orexin-A. Type of assay: cell-based.

What is called IC50 is the concentration that gives 50% inhibition.

human orexin-2 receptor, sequence (O43614 whole entry): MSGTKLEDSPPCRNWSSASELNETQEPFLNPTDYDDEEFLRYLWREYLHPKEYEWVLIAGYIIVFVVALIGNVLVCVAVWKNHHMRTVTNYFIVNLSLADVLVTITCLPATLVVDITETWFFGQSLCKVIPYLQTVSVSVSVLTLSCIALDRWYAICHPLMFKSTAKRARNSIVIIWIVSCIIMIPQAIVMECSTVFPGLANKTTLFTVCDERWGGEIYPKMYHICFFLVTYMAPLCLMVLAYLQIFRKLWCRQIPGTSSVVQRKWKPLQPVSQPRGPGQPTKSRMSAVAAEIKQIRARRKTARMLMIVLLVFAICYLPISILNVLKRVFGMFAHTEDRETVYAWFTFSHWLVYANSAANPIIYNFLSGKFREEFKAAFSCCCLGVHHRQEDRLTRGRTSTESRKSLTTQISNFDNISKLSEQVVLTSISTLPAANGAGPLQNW

As to `COc1ccnc(O[C@@H]2CC[C@@H](C)N(C(=O)c3ccc(OC)nc3C3CC3)C2)c1` [Example 21, 2-cyclopropyl-6-methoxy-3-({(2R,5R)-5-[(4-methoxypyridin-2-yl)oxy]-2-methylpiperidin-1-yl}carbonyl) pyridine], the results for the IC50 in assay [1] and in assay [2] were 38.3 nM and 8190 nM, respectively.

On to `C[C@@H]1CC[C@@H](Oc2cc(OCC(F)F)ccn2)CN1C(=O)c1ccc(F)cc1-n1nccn1` [Example 35, 4-(2,2-difluoroethoxy)-2-{[(3R,6R)-1-{[4-fluoro-2-(2H-1,2,3-triazol-2-yl)phenyl]carbonyl}-6-methylpiperidin-3-yl]oxy}pyridine], for which the IC50 in assay [1] is 62 nM; in assay [2], 3270 nM. For `COc1ccnc(O[C@@H]2CC[C@@H](C)N(C(=O)c3ccccc3C(F)(F)F)C2)c1` [Example 13, 4-methoxy-2-{[(3R,6R)-6-methyl-1-{[2-(trifluoromethyl)phenyl]carbonyl}piperidin-3-yl]oxy}pyridine] the same measures were 56.2 nM and 1760 nM.

For the compound `COc1ccnc(O[C@@H]2CC[C@@H](C)N(C(=O)c3ccc(OC)nc3-n3nccn3)C2)c1` [Example 18], the IC50 in assay [1] was found to be 94.5 nM; in assay [2], 10000 nM.

For the compound `CCOc1ccnc(O[C@@H]2CC[C@@H](C)N(C(=O)c3ccccc3-n3ncnn3)C2)c1` [Example 8, 4-ethoxy-2-{[(3R,6R)-6-methyl-1-{[2-(2H-tetrazol-2-yl)phenyl]carbonyl}piperidin-3-yl]oxy}pyridine], the values for the IC50 in assay [1] and in assay [2] were 35.4 nM and 2010 nM, respectively. The like results for `C[C@@H]1CC[C@@H](Oc2cc(OCC(F)F)ccn2)CN1C(=O)c1ccccc1-c1ncccn1` [Example 45, 2-(2-{[(2R,5R)-5-{[4-(2,2-difluoroethoxy)pyridin-2-yl]oxy}-2-methylpiperidin-1-yl]carbonyl}phenyl) pyrimidine] were, in that order, 33 nM and 2940 nM. `C[C@@H]1CC[C@@H](Oc2cc(OCC(F)(F)F)ccn2)CN1C(=O)c1ccccc1-n1ncnn1` [Example 30, 2-{[(3R,6R)-6-methyl-1-{[2-(2H-tetrazol-2-yl)phenyl]carbonyl}piperidin-3-yl]oxy}-4-(2,2,2-trifluoroethoxy)pyridine]: the IC50 in assay [1] was found to be 38 nM; in assay [2], 10000 nM. For `C[C@@H]1CC[C@@H](Oc2cc(OCC(F)F)ccn2)CN1C(=O)c1ncccc1-n1nccn1` [Example 33, 2-{[(2R,5R)-5-{[4-(2,2-difluoroethoxy)pyridin-2-yl]oxy}-2-methylpiperidin-1-yl]carbonyl}-3-(2H-1,2,3-triazol-2-yl)pyridine] the same measures were 71 nM and above 10000 nM. Turning to `CC(C)Oc1ccnc(O[C@@H]2CC[C@@H](C)N(C(=O)c3ccsc3-n3nccn3)C2)c1` [Example 61, 4-(1-methylethoxy)-2-{[(3R,6R)-6-methyl-1-{[2-(2H-1,2,3-triazol-2-yl)thiophen-3-yl]carbonyl}piperidin-3-yl]oxy}pyridine], the values for the IC50 in assay [1] and in assay [2] were 25 nM and 1480 nM, respectively. With `CC(C)Oc1ccnc(O[C@@H]2CC[C@@H](C)N(C(=O)c3ccccc3-c3ncccn3)C2)c1` [Example 44, 2-(2-{[(2R,5R)-2-Methyl-5-{[4-(1-methylethoxy)pyridin-2-yl]oxy}piperidin-1-yl]carbonyl}phenyl)pyrimidine], the values for the IC50 in assay [1] and in assay [2] were 67 nM and 1640 nM, respectively. For `CCCOc1ccnc(O[C@@H]2CC[C@@H](C)N(C(=O)c3ccccc3-n3nccn3)C2)c1` [Example 43, 2-{[(3R,6R)-6-methyl-1-{[2-(2H-1,2,3-triazol-2-yl)phenyl]carbonyl}piperidin-3-yl]oxy}-4-propoxypyridine] the same measures were 38.7 nM and 2490 nM. For `CCOc1ccnc(O[C@@H]2CC[C@@H](C)N(C(=O)c3ccsc3-n3nccn3)C2)c1` [Example 62, 4-ethoxy-2-{[(3R,6R)-6-methyl-1-{[2-(2H-1,2,3-triazol-2-yl)thiophen-3-yl]carbonyl}piperidin-3-yl]oxy}pyridine] the same measures were 22 nM and 1160 nM. The like results for `COc1ccnc(O[C@@H]2CC[C@@H](C)N(C(=O)c3ccccc3-n3ncnn3)C2)c1` [Example 6, 4-Methoxy-2-{[(3R,6R)-6-methyl-1-{[2-(2H-tetrazol-2-yl)phenyl]carbonyl}piperidin-3-yl]oxy}pyridine] were, in that order, 19 nM and 2180 nM.

As for `CCOc1ccnc(O[C@@H]2CC[C@@H](C)N(C(=O)c3ccccc3-n3nccn3)C2)c1` [Example 1, 4-Ethoxy-2-{[(3R,6R)-6-methyl-1-{[2-(2H-1,2,3-triazol-2-yl)phenyl]carbonyl}piperidin-3-yl]oxy}pyridine], the figures for the IC50 in assay [1] and in assay [2] were 20.5 nM and 859 nM, respectively.

As for `CC(C)Oc1ccnc(O[C@@H]2CC[C@@H](C)N(C(=O)c3ccccc3-n3ncnn3)C2)c1` [Example 7, 4-(1-methylethoxy)-2-{[(3R,6R)-6-methyl-1-{[2-(2H-tetrazol-2-yl)phenyl]carbonyl}piperidin-3-yl]oxy}pyridine], the IC50 in assay [1] is 23 nM; in assay [2], 1200 nM.

In the case of `CC(C)Oc1ccnc(O[C@@H]2CC[C@@H](C)N(C(=O)c3ccccc3-n3nccn3)C2)c1` [Example 5, 4-(1-Methylethoxy)-2-{[(3R,6R)-6-methyl-1-{[2-(2H-1,2,3-triazol-2-yl)phenyl]carbonyl}piperidin-3-yl]oxy}pyridine], the IC50 came out at 15.1 nM in assay [1] and 669 nM in assay [2].

Regarding `C[C@@H]1CC[C@@H](Oc2cc(OCC(F)F)ccn2)CN1C(=O)c1c(F)cccc1-n1nccn1` [Example 36, 4-(2,2-difluoroethoxy)-2-{[(3R,6R)-1-{[2-fluoro-6-(2H-1,2,3-triazol-2-yl)phenyl]carbonyl}-6-methylpiperidin-3-yl]oxy}pyridine], the IC50 is 56 nM in assay [1] and 2970 nM in assay [2]. `C[C@@H]1CC[C@@H](Oc2cc(OCC(F)F)ccn2)CN1C(=O)c1ccccc1C1(C#N)CC1` [Example 32, 1-(2-{[(2R,5R)-5-{[4-(2,2-difluoroethoxy)pyridin-2-yl]oxy}-2-methylpiperidin-1-yl]carbonyl}phenyl) cyclopropanecarbonitrile]: the IC50 in assay [1] was 24 nM; in assay [2] it was 4360 nM.

On to `COc1ccnc(O[C@@H]2CC[C@@H](C)N(C(=O)c3ccccc3-n3nccn3)C2)c1` [Example 2, 4-methoxy-2-{[(3R,6R)-6-methyl-1-{[2-(2H-1,2,3-triazol-2-yl)phenyl]carbonyl}piperidin-3-yl]oxy}pyridine], for which the 50% inhibitory concentration (IC50) was 12.5 nM in assay [1] and 617 nM in assay [2]. The like results for `C[C@@H]1CC[C@@H](Oc2cc(OCC(F)F)ccn2)CN1C(=O)c1ccccc1CS(C)(=O)=O` [Example 31, 4-(2,2-difluoroethoxy)-2-{[(3R,6R)-6-methyl-1-({2-[(methylsulfonyl)methyl]phenyl}carbonyl)piperidin-3-yl]oxy}pyridine] were, in that order, 34 nM and above 10000 nM. For `CCOc1ccccc1C(=O)N1C[C@H](Oc2cc(OC)ccn2)CC[C@H]1C` [Example 14, 2-({(3R,6R)-1-[(2-ethoxyphenyl)carbonyl]-6-methylpiperidin-3-yl}oxy)-4-methoxypyridine] the same measures were 34.8 nM and 1980 nM.

On to `C[C@@H]1CC[C@@H](Oc2cc(OC(F)F)ccn2)CN1C(=O)c1ccsc1-n1nccn1` [Example 54, (2-(2H-1,2,3-Triazol-2-yl)thiophen-3-yl)((2R,5R)-5-((4-(difluoromethoxy)pyridin-2-yl)oxy)-2-methylpiperidin-1-yl)methanone], for which the figures for the IC50 in assay [1] and in assay [2] were 11 nM and 1020 nM, respectively. In the case of `COc1ccnc(O[C@@H]2CC[C@@H](C)N(C(=O)c3ccsc3-n3nccn3)C2)c1` [Example 59, 4-methoxy-2-{[(3R,6R)-6-methyl-1-{[2-(2H-1,2,3-triazol-2-yl)thiophen-3-yl]carbonyl}piperidin-3-yl]oxy}pyridine], the IC50 in assay [1] worked out at 11 nM.
